Assay results as given in patent US20250289789A1, “REVERSIBLE LYSINE COVALENT MODIFIERS OF CDK2 AND USES THEREOF” (Terremoto Biosciences, Inc., priority 2023, published 2025).
Where two headings read alike, the source gives them in different places.

Legend:
Format in all cases: cell-based
[1] = system: Phospho-Rb Ser807/811 in OVCAR3 cells; experiment: OVCAR3 Phospho-Rb Ser807/811 HTRF assay; settings: OVCAR3 cells, Phospho-Rb Ser807/811 HTRF, 1 hour incubation, read-out: pRb-OVCAR3 IC50
Description: Cells were trypsinized and resuspended in 1 mM hydroxyurea (Sigma; H8627), 90% RPMI and 10% fetal bovine serum. […] Dose response curve normalized to DMSO control was plotted using four-parameter logistic model for IC50 calculation.

[2] = molecular target: T1, CDK4-NanoLuc fusion with CCND1 in 293T or 293 cells (Homo sapiens, UniProt P11802); experiment: NanoBRET Target Engagement (TE) Intracellular Kinase Assay, CDK4/CCND1; settings: 2-hour incubation
T1 construct: host or cells: 293T (ATCC CRL-3216) or 293 (ATCC CRL-1573)
T1 sequence (P11802 whole entry, the tested form may be a part): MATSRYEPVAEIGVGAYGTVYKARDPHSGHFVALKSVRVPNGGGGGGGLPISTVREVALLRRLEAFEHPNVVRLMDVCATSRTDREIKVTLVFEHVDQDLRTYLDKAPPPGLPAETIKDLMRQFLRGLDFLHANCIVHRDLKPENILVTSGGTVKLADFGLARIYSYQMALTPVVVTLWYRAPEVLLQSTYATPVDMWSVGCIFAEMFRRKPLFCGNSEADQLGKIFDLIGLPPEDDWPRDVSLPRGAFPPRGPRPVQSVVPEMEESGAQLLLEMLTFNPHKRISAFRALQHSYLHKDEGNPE
T1 sequence (P24385 whole entry partner, the tested form may be a part): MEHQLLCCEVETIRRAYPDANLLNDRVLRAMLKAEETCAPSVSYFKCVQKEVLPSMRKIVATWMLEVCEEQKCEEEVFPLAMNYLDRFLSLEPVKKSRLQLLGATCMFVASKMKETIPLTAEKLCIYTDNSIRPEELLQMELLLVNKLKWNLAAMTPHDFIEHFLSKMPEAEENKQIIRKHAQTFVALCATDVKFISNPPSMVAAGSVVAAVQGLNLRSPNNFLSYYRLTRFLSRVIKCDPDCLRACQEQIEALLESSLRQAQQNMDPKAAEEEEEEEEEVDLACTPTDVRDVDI

[3] = molecular target: T2, CDK2-NanoLuc fusion with CCNE1 in 293T or 293 cells (Homo sapiens, UniProt P24941); experiment: NanoBRET Target Engagement (TE) Intracellular Kinase Assay, CDK2/CCNE1; settings: 2-hour incubation
T2 construct: host or cells: 293T (ATCC CRL-3216) or 293 (ATCC CRL-1573)

[4] = molecular target: T3, CDK1-NanoLuc fusion with CCNB1 in 293T or 293 cells (Homo sapiens, UniProt P06493); experiment: NanoBRET Target Engagement (TE) Intracellular Kinase Assay, CDK1/CCNB1; settings: 2-hour incubation
T3 construct: host or cells: 293T (ATCC CRL-3216) or 293 (ATCC CRL-1573)
T3 sequence (P06493 whole entry, the tested form may be a part): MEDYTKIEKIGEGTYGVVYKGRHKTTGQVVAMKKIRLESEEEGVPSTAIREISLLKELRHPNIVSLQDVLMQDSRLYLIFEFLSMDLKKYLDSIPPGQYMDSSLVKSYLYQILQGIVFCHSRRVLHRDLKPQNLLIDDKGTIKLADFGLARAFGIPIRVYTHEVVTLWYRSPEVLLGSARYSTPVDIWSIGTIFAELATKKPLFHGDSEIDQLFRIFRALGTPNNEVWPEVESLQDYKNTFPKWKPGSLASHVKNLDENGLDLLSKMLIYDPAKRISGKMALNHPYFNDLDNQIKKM
T3 sequence (P14635 whole entry partner, the tested form may be a part): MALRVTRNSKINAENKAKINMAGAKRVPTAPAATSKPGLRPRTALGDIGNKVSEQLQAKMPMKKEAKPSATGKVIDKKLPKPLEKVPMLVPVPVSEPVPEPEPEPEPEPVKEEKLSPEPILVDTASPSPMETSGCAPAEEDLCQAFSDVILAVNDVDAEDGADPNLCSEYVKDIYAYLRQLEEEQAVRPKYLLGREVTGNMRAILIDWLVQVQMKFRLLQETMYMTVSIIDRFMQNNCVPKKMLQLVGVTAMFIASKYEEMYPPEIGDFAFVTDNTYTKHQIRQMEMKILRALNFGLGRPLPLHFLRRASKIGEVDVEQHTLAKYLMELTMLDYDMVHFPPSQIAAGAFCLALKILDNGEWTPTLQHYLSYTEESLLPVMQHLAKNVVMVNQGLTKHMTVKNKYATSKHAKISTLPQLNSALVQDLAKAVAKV
In short: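 293T or 293 cells co-transfected with CDK1-NanoLuc and CCNB1 vectors, incubated 24 h, then exposed to NanoBRET Tracer K-10 plus compound for 2 h at 37° C. BRET ratio (610/450 nm) normalized to DMSO; IC50 from four-parameter logistic fit.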

[5] = NanoBRET-CDK2/E1 IC50, NanoBRET TE intracellular kinase assay
[6] = NanoBRET TE intracellular kinase assay, read-out: NanoBRET-CDK4/D1 IC50
[7] = NanoBRET TE intracellular kinase assay, read-out: NanoBRET-CDK2/E1 IC50
[8] = NanoBRET TE intracellular kinase assay, read-out: NanoBRET-CDK1/B1 IC50

SMILES	IC50 ([1]; Homo sapiens, OVCAR-3, 1 h)	IC50 [2, 6]	IC50 [3, 7]	IC50 [4, 8]	IC50 [1]	IC50 ([1]; Homo sapiens, OVCAR-3)	IC50 ([2]; NanoBRET-CDK4/D1 IC50, NanoBRET TE intracellular kinase assay)	IC50 [3, 5]	IC50 ([4]; NanoBRET-CDK1/B1 IC50, NanoBRET TE intracellular kinase assay)
COc1cc(O)c(C=O)c(OCC(=O)Nc2cc([C@H]3CC[C@@H](OC(=O)N4C5CCC4COC5)C3)[nH]n2)c1 [Compound 207, (1R,3S)-3-{5-[2-(2-formyl-3-hydroxy-5-methoxyphenoxy)acetamido]-2H-pyrazol-3-yl}cyclopentyl 3-oxa-8-azabicyclo[3.2.1]octane-8-carboxylate]	–	–	–	–	–	25.7 nM	4130 nM	2.25 nM	6.54 nM
CC(C)NC(=O)O[C@@H]1CC[C@H](c2cc(NC(=O)c3cc(C=O)c4[nH]ncc4c3)n[nH]2)C1 [Compound 40, (1R,3S)-3-(3-(7-formyl-1H-indazole-5-carboxamido)-1H-pyrazol-5-yl)cyclopentyl isopropylcarbamate]	796 nM	1460 nM	24.4 nM	275 nM	–	–	–	–	–
COc1cc(O)c(C=O)c([C@H]2C[C@@H]2C(=O)Nc2cc([C@H]3CC[C@@H](OC(=O)NC(C)C)C3)[nH]n2)c1 (single isomer, unassigned) [Compound 90]	761 nM	5100 nM	43.8 nM	213 nM	–	–	–	–	–
COc1cc(O)c(C=O)c(OCC(=O)Nc2cc([C@H]3CC[C@@H](OC(=O)N4CCC(F)(F)C4)C3)[nH]n2)c1 [Compound 246]	33 nM	6110 nM	2.78 nM	9.45 nM	–	–	–	–	–
COc1cc(O)c(C=O)c(OCC(=O)Nc2cc([C@H]3CC[C@@H](OC(=O)N4[C@H](C)COC[C@@H]4C)C3)[nH]n2)c1 [Compound 201]	28.4 nM	4680 nM	4.1 nM	12.9 nM	–	–	–	–	–
COc1cc(O)c(C=O)c(OCC(=O)Nc2cc([C@H]3C[C@@H](OC(=O)NC(C)C)C3)[nH]n2)c1 [Compound 223]	–	> 10000 nM	4.13 nM	13.1 nM	65.6 nM	–	–	–	–
CC(C)NC(=O)O[C@@H]1CC[C@H](c2cc(NC(=O)C3Cc4ccc(O)c(C=O)c4O3)n[nH]2)C1 (stereo partly drawn) [Compound 62, (1R,3S)-3-(3-(7-formyl-6-hydroxy-2,3-dihydrobenzo-furan-2-carboxamido)-1H-pyrazol-5-yl)cyclopentyl isopropylcarbamate]	1870 nM	7230 nM	34.4 nM	270 nM	–	–	–	–	–
CC(C)NC(=O)O[C@@H]1CC[C@H](c2cc(NC(=O)Cc3ncc(-c4cccc(O)c4C=O)s3)n[nH]2)C1 [Compound 66, (1R,3S)-3-(5-{2-[5-(2-formyl-3-hydroxyphenyl)-1,3-thiazol-2-yl]acetamido}-2H-pyrazol-3-yl)cyclopentyl N-isopropylcarbamate; trifluoroacetic acid]	1690 nM	779 nM	8.87 nM	390 nM	–	–	–	–	–
COCc1cc(O)c(C=O)c(-c2cc(C(=O)Nc3cc([C@H]4CC[C@@H](OC(=O)NC(C)C)C4)[nH]n3)n(C)n2)c1 [Compound 71, (1R,3S)-3-(5-{5-[2-formyl-3-hydroxy-5-(methoxymethyl)phenyl]-2-methylpyrazole-3-amido}-2H-pyrazol-3-yl)cyclopentyl N-isopropylcarbamate; trifluoroacetic acid]	85.5 nM	4110 nM	7.8 nM	10.3 nM	–	–	–	–	–
COc1cc(O)c(C=O)c(OCC(=O)Nc2cc([C@H]3CC[C@@H](OC(=O)N4CCOC[C@H]4C)C3)[nH]n2)c1 [Compound 206]	27.4 nM	> 10000 nM	2.46 nM	5.62 nM	–	–	–	–	–
COc1cc(O)c(C=O)c(OCC(=O)Nc2cc([C@@H]3CCC(OC(=O)N4CCCC4)C3)[nH]n2)c1 (some centres unmarked) [Compound 241]	77.6 nM	3850 nM	3.05 nM	22.9 nM	–	–	–	–	–
C[C@H]1CCCN1C(=O)O[C@@H]1CC[C@H](c2cc(NC(=O)COc3cccc(O)c3C=O)n[nH]2)C1 [Compound 102, (S)-((1R,3S)-3-(3-(2-(2-formyl-3-hydroxyphenoxy)acetamido)-1H-pyrazol-5-yl)cyclopentyl) 2-methylpyrrolidine-1-carboxylate; trifluoroacetic acid]	–	2860 nM	–	8.39 nM	–	78.2 nM	–	4.16 nM	–
COc1ccc(OCC(=O)Nc2cc([C@H]3CC[C@@H](OC(=O)NC(C)C)C3)[nH]n2)c(C=O)c1O [Compound 80, (1R,3S)-3-{5-[2-(2-formyl-3-hydroxy-4-methoxyphenoxy)acetamido]-2H-pyrazol-3-yl}cyclopentyl N-isopropylcarbamate]	132 nM	> 10000 nM	25.4 nM	37.3 nM	–	–	–	–	–
COc1cc(OC)c(C=O)c(OCC(=O)Nc2cc([C@H]3C[C@@H](OC(=O)N4C5COCC4C5)C3)[nH]n2)c1 [Compound 108, (1s,3s)-3-(3-(2-(2-formyl-3,5-dimethoxyphenoxy)acetamido)-1H-pyrazol-5-yl)cyclobutyl 3-oxa-6-azabicyclo[3.1.1]heptane-6-carboxylate]	44.4 nM	> 10000 nM	3.65 nM	15.2 nM	–	–	–	–	–
CC(C)NC(=O)O[C@@H]1CC[C@H](c2cc(NC(=O)c3cc(C#Cc4cccc(O)c4C=O)nn3C)n[nH]2)C1 [Compound 29, (1R,3S)-3-(5-{5-[2-(2-formyl-3-hydroxyphenyl)ethynyl]-2-methylpyrazole-3-amido}-2H-pyrazol-3-yl)cyclopentyl N-isopropylcarbamate]	2150 nM	1550 nM	18.6 nM	494 nM	–	–	–	–	–
COCCNC(=O)O[C@@H]1CC[C@H](c2cc(NC(=O)COc3cc(OC)cc(O)c3C=O)n[nH]2)C1 [Compound 213]	35.6 nM	> 10000 nM	4.72 nM	30.1 nM	–	–	–	–	–
CC(C)NC(=O)O[C@@H]1CC[C@H](c2cc(NC(=O)[C@H]3C[C@H](Oc4cccc(O)c4C=O)C3)n[nH]2)C1 (single isomer, unassigned) [Compound 1]	274 nM	1800 nM	7.87 nM	62.9 nM	–	–	–	–	–

The next lines start with results.

IC50 ([1]; Homo sapiens, OVCAR-3, 1 h)	IC50 [2, 6]	IC50 [3, 7]	IC50 [4, 8]	IC50 [1]	SMILES	IC50 ([1]; Homo sapiens, OVCAR-3)	IC50 ([2]; NanoBRET-CDK4/D1 IC50, NanoBRET TE intracellular kinase assay)	IC50 [3, 5]	IC50 ([4]; NanoBRET-CDK1/B1 IC50, NanoBRET TE intracellular kinase assay)
1130 nM	474 nM	24.7 nM	351 nM	–	CC(C)NC(=O)O[C@@H]1CC[C@H](c2cc(NC(=O)c3ccc(C=O)c4[nH]ncc34)n[nH]2)C1 [Compound 39, (1R,3S)-3-[5-(7-formyl-1H-indazole-4-amido)-2H-pyrazol-3-yl]cyclopentyl N-isopropylcarbamate]	–	–	–	–
60.9 nM	> 10000 nM	2.98 nM	44.7 nM	–	COc1cc(O)c(C=O)c(OCC(=O)Nc2cc([C@H]3CC[C@@H](OC(=O)NN4CCCC4)C3)[nH]n2)c1 [Compound 217]	–	–	–	–
552 nM	196 nM	5.34 nM	98.9 nM	–	CC(C)NC(=O)O[C@@H]1CC[C@H](c2cc(NC(=O)CCOc3cccc(O)c3C=O)n[nH]2)C1 [Compound 34, (1R,3S)-3-{5-[3-(2-formyl-3-hydroxyphenoxy)propanamido]-2H-pyrazol-3-yl}cyclopentyl N-isopropylcarbamate; trifluoroacetic acid]	–	–	–	–
40.2 nM	2300 nM	2.18 nM	4.84 nM	–	COc1cc(O)c(C=O)c(OCC(=O)Nc2cc([C@H]3CC[C@@H](OC(=O)N4CCCC45CC5)C3)[nH]n2)c1 [Compound 232]	–	–	–	–
63.7 nM	2830 nM	3.84 nM	7.61 nM	–	C#C[C@@H]1CCCN1C(=O)O[C@@H]1CC[C@H](c2cc(NC(=O)COc3cc(OC)cc(O)c3C=O)n[nH]2)C1 [Compound 222]	–	–	–	–
22.1 nM	2800 nM	1.54 nM	7.4 nM	–	COc1cc(O)c(C=O)c(OCC(=O)Nc2cc([C@H]3CC[C@@H](OC(=O)N4CC[C@@H](F)C4)C3)[nH]n2)c1 [Compound 240]	–	–	–	–
28.7 nM	3870 nM	6.55 nM	5.94 nM	–	COCC1(NC(=O)O[C@@H]2CC[C@H](c3cc(NC(=O)COc4cc(OC)cc(O)c4C=O)n[nH]3)C2)CC1 [Compound 209]	–	–	–	–
26.3 nM	2040 nM	3.48 nM	4.59 nM	–	COc1cc(O)c(C=O)c(OCC(=O)Nc2cc([C@H]3CC[C@@H](OC(=O)N4CCOCC45CC5)C3)[nH]n2)c1 [Compound 205]	–	–	–	–
1820 nM	1190 nM	10.4 nM	151 nM	–	CC(C)NC(=O)O[C@@H]1CC[C@H](c2cc(NC(=O)c3cc(OCc4cccc(O)c4C=O)nn3C)n[nH]2)C1 [Compound 28, (1R,3S)-3-(3-(3-((2-formyl-3-hydroxybenzyl)oxy)-1-methyl-1H-pyrazole-5-carboxamido)-1H-pyrazol-5-yl)cyclopentyl isopropylcarbamate]	–	–	–	–
